From PubChem BioAssay (NCI)
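In this assay, cells in 96-well plates receive the compound at five concentrations for 48 hours. Endpoints are linearly interpolated between the surrounding concentrations. TGI: total growth inhibition.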

Tests used:
Test in all cases: growth of human tumour cells (NCI), 48 h
786-0 renal = test system: 786-0 renal
A498 renal = test system: A498 renal
A549 NSCLC = test system: A549 NSCLC
ACHN renal = test system: ACHN renal
CCRF-CEM leukemia = test system: CCRF-CEM leukemia
DLD-1 colon = test system: DLD-1 colon
DMS 114 small cell lung = test system: DMS 114 small cell lung
DMS 273 small cell lung = test system: DMS 273 small cell lung
HCT-116 colon = test system: HCT-116 colon
HCT-15 colon = test system: HCT-15 colon
HL-60(TB) leukemia = test system: HL-60(TB) leukemia
HT29 colon = test system: HT29 colon
IGROV1 ovarian = test system: IGROV1 ovarian
K-562 leukemia = test system: K-562 leukemia
KM12 colon = test system: KM12 colon
LOX IMVI melanoma = test system: LOX IMVI melanoma
M14 melanoma = test system: M14 melanoma
M19-MEL melanoma = test system: M19-MEL melanoma
MALME-3M melanoma = test system: MALME-3M melanoma
MOLT-4 leukemia = test system: MOLT-4 leukemia
NCI-H226 lung = test system: NCI-H226 lung
NCI-H23 lung = test system: NCI-H23 lung
NCI-H460 lung = test system: NCI-H460 lung
NCI-H522 lung = test system: NCI-H522 lung
OVCAR-3 ovarian = test system: OVCAR-3 ovarian
OVCAR-4 ovarian = test system: OVCAR-4 ovarian
OVCAR-8 ovarian = test system: OVCAR-8 ovarian
RXF 393 renal = test system: RXF 393 renal
SF-268 CNS = test system: SF-268 CNS
SF-295 CNS = test system: SF-295 CNS
SF-539 CNS = test system: SF-539 CNS
SK-MEL-2 melanoma = test system: SK-MEL-2 melanoma
SK-MEL-28 melanoma = test system: SK-MEL-28 melanoma
SK-MEL-5 melanoma = test system: SK-MEL-5 melanoma
SK-OV-3 ovarian = test system: SK-OV-3 ovarian
SN12C renal = test system: SN12C renal
SNB-19 CNS = test system: SNB-19 CNS
SNB-78 CNS = test system: SNB-78 CNS
TK-10 renal = test system: TK-10 renal
U251 CNS = test system: U251 CNS
UACC-257 melanoma = test system: UACC-257 melanoma
UACC-62 melanoma = test system: UACC-62 melanoma
UO-31 renal = test system: UO-31 renal
XF 498 CNS = test system: XF 498 CNS
CAKI-1 renal = test system: CAKI-1 renal
COLO 205 colon = test system: COLO 205 colon
HCC-2998 colon = test system: HCC-2998 colon
HOP-62 NSCLC = test system: HOP-62 NSCLC
HOP-92 NSCLC = test system: HOP-92 NSCLC
KM20L2 colon = test system: KM20L2 colon
LXFL 529 NSCLC = test system: LXFL 529 NSCLC
OVCAR-5 ovarian = test system: OVCAR-5 ovarian
RPMI-8226 leukemia = test system: RPMI-8226 leukemia
SNB-75 CNS = test system: SNB-75 CNS
SR leukemia = test system: SR leukemia
SW-620 colon = test system: SW-620 colon

Measured: TGI

COc1ccc(C2C(Cl)C(=O)N2NC(=O)c2ccccc2O)cc1OC (configuration not stated)
47.7 µM: XF 498 CNS
not listed: CAKI-1 renal | COLO 205 colon | HCC-2998 colon | HOP-62 NSCLC | HOP-92 NSCLC | KM20L2 colon | LXFL 529 NSCLC | OVCAR-5 ovarian | RPMI-8226 leukemia | SNB-75 CNS | SR leukemia | SW-620 colon
> 100 µM: all other assays above

CN(C)Cc1[nH]c2ccccc2c1C(=O)c1ccccc1
74.9 µM: SNB-75 CNS
not listed: A498 renal | DMS 114 small cell lung | LOX IMVI melanoma | M19-MEL melanoma | RXF 393 renal | SK-OV-3 ovarian | SN12C renal | SNB-78 CNS
> 100 µM: all other assays above
